US11266650B2, “Pharmaceutical composition for preventing and treating nonalcoholic steatohepatitis, hepatic fibrosis, and liver cirrhosis, comprising adenosine derivatives” (FUTURE MEDICINE CO., LTD., priority 2016, dated 2022)

Experiments:
[1] = biological target: T1, human A1 adenosine receptor (hA1) (Homo sapiens, UniProt P30542); experiment: Binding affinity for human A1 adenosine receptor expressed in CHO cells ([3H]CCPA); details: 10 μM (table footnote); read-out: percentage inhibition of specific binding, hA1
T1 construct: expressed in transfected cells; host or cells: CHO cells (ATCC No. CCL-61)
T1 sequence (P30542 1-326): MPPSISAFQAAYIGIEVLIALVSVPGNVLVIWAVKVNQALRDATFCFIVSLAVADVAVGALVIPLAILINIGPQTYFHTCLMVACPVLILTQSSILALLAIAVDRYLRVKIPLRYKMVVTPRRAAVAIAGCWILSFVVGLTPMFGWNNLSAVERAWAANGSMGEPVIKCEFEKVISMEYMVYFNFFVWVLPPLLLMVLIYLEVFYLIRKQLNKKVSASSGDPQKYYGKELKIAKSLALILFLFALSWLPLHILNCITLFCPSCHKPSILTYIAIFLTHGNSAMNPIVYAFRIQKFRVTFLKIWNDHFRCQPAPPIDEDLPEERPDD

[2] = biological target: T2, human A2A adenosine receptor (hA2A) (Homo sapiens, UniProt P29274); experiment: Binding affinity for A2A adenosine receptor expressed on HEK 293 cell ([3H]CGS-21680); details: 10 μM (table footnote); read-out: percentage inhibition of specific binding, hA2A
T2 construct: expressed in transfected cells; host or cells: HEK 293 cells
T2 sequence (P29274 whole entry): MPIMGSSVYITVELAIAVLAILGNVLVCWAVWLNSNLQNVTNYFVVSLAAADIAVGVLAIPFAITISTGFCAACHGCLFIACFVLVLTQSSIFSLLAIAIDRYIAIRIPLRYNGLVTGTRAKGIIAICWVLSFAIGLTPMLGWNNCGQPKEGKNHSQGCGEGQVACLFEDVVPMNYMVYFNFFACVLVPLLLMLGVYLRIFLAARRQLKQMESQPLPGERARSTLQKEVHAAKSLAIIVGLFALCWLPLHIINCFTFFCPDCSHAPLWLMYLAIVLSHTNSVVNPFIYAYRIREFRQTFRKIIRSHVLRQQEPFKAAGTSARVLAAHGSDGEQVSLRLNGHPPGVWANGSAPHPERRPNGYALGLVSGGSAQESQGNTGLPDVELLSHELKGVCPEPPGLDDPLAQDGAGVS

[3] = system: TPA-induced inflammation of the mouse ear; experiment: Anti-inflammatory activity, TPA-treated mouse ear; type: in vivo, ICR mice; details: for anti-inflammatory activity relative to Examples 2 to 4: 0.5% in acetone, on the basis of inhibition percentage; for percentage of inflammation inhibition: topical, mouse ear
Method: The adenosine derivatives of the present invention were examined for anti-inflammatory activity in the following animal test. Seven-week-old male ICR mice were treated with TPA (12-O-tetradecanoylphorbol-13-acetate, 20 μl) in the right ear. […] Hydrocortisone was used at the same concentration as a control.
6 hrs after treatment with TPA, the mice were secondarily treated with the adenosine derivatives of the present invention. 24 hrs after TPA treatment, test animals were euthanized using a cervical dislocation method. Samples were obtained from the right ear using a 6 mm diameter punch. The activity was observed by measuring the ear sample using a microbalance. Percentages of inhibition were calculated using the following Equation 1. The compositions and amounts used in these experiments are summarized in Tables 2 to 5 and the anti-inflammatory activities thereof are shown in FIGS. 2 to 5.

[4] = biological target: T3, human A2B adenosine receptor (Homo sapiens, UniProt P29275); experiment: Agonist or antagonist activity on human A2B adenosine receptor; type: biochemical
T3 sequence (P29275 1-332): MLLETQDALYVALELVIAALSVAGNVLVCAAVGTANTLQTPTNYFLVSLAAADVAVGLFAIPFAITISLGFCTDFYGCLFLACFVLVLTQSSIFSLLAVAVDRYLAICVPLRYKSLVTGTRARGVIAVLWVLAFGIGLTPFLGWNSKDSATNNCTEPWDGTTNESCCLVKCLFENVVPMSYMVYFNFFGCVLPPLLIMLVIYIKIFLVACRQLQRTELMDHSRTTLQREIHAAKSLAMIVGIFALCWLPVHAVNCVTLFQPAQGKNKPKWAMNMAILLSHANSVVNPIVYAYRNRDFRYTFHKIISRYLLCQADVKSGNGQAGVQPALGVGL

[5] = biological target: T4, human A3 adenosine receptor (Homo sapiens, UniProt P0DMS8); experiment: Antagonism of Cl-IB-MECA and cAMP inhibition in CHO cells expressing human A3 adenosine receptor; type: cell-based; details: CHO cells expressing hA3 AR, various concentrations
T4 construct: expressed in transfected cells; host or cells: CHO cells
T4 sequence (P0DMS8 1-318): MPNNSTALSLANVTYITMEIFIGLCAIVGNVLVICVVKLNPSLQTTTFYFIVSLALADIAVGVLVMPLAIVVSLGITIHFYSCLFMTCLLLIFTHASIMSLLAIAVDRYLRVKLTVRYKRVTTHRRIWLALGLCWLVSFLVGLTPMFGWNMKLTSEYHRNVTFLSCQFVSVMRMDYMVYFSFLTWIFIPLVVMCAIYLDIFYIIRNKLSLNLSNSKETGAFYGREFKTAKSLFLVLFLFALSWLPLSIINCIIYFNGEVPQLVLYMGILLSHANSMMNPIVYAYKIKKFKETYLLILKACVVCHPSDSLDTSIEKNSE

[6] = biological target: T5, human A3 adenosine receptor (hA3 AR) (Homo sapiens, UniProt P0DMS8); experiment: Binding affinity for human A3 adenosine receptor expressed in CHO cells ([125I]AB-MECA); details: for Ki: ± SEM, [125I]AB-MECA, CHO cells
T5 construct: expressed in transfected cells; host or cells: CHO cells (ATCC No. CCL-61)
T5 sequence (P0DMS8 1-318): T4 sequence (P0DMS8 1-318)

[7] = system: NASH- or NAFLD-induced mice; experiment: Efficacy test on NASH or NAFLD and liver fibrosis in NASH- or NAFLD-induced mice; type: in vivo; details: oral once a day, 6 to 10 weeks of age; vs negative control; HE staining
Method: As a comparison group, eight normal mice were given no treatment until 10 weeks of age. As a positive control group, eight NASH- or NAFLD-induced mice were orally administered with 10 mg/kg of telmisartan (i.e., a hypertension medication) once a day for six to 10 weeks of age. As a negative control group, eight NASH- or NAFLD-induced mice were orally administered with only 10 mL/kg of 0.5% methyl cellulose (i.e., a vehicle) once a day for 6 to 10 weeks of age.
Then, for the livers of the experimental animals at 10 weeks of age, the degree of steatosis, inflammation and ballooning were measured using HE staining, and the area of fibrosis was observed and measured using Sirius red staining.

[8] = 0.5% in distilled water:acetone (1:4)

| Structure (SMILES) | inhibition at 10 µM [1] [%] | inhibition [2] [%] | melting point | also measured |
| --- | --- | --- | --- | --- |
| O[C@@H]1[C@H](O)CS[C@H]1n1cnc2c(NCc3cccc(F)c3)nc(Cl)nc21 [Example 1, (2R,3R,4S)-2-(2-Chloro-6-(3-fluorobenzylamino)-9H-purin-9-yl)tetrahydrothiophen-3,4-diol] | 19.8 | 47.6 | 183.2 to 183.5 °C | anti-inflammatory activity relative to Examples 2 to 4 [3]: four or more times that of the compounds of Examples 2 to 4 |
| O[C@@H]1[C@H](O)CS[C@H]1n1cnc2c(NCc3cccc(Br)c3)nc(Cl)nc21 [Example 3, (2R,3R,4S)-2-(2-Chloro-6-(3-bromobenzylamino)-9H-purin-9-yl)tetrahydrothiophen-3,4-diol] | 34.2 | 18.4 | 184 to 185 °C |  |
| O[C@@H]1[C@H](O)CS[C@H]1n1cnc2c(NCc3cccc(I)c3)nc(Cl)nc21 [Example 4, (2R,3R,4S)-2-(2-Chloro-6-(3-iodobenzylamino)-9H-purin-9-yl)tetrahydrothiophen-3,4-diol] |  |  |  | agonist or antagonist on human A2B adenosine receptor [4]: not observed as an agonist or antagonist; inhibition of the agonist effect of Cl-IB-MECA [5]: inhibited in a dose-dependent manner |
| O[C@@H]1[C@H](O)CS[C@H]1n1cnc2c(NCc3ccccc3Cl)nc(Cl)nc21 [Example 5, (2R,3R,4S)-2-(2-Chloro-6-(2-chlorobenzylamino)-9H-purin-9-yl)tetrahydrothiophen-3,4-diol] |  |  | 198.7 to 199.7 °C | inhibition [1]: 12.8%; percentage of inflammation inhibition [3, 8]: 17% |
| COc1ccc(Cl)cc1CNc1nc(Cl)nc2c1ncn2[C@@H]1SC[C@@H](O)[C@H]1O [Example 6, (2R,3R,4S)-2-(2-Chloro-6-(5-chloro-2-methoxybenzylamino)-9H-purin-9-yl)tetrahydrothiophen-3,4-diol] | 23.8 |  | 188.8 to 189.8 °C | anti-inflammatory activity relative to Examples 2 to 4 [3]: four or more times that of the compounds of Examples 2 to 4 |
| CCCc1nc2c(C)cc(-c3nc4ccccc4n3C)cc2n1Cc1ccc(-c2ccccc2C(=O)O)cc1 [telmisartan] |  |  |  | steatosis score of the liver [7]: no significant decrease in steatosis was observed |

The next lines start with results.

| inhibition at 10 µM [1] [%] | inhibition [2] [%] | melting point | Structure (SMILES) | also measured |
| --- | --- | --- | --- | --- |
| 9.4 | 17.5 | 188 °C | COc1ccccc1CNc1nc(Cl)nc2c1ncn2[C@@H]1SC[C@@H](O)[C@H]1O [Example 7, (2R,3R,4S)-2-(2-chloro-6-(2-methoxybenzylamino)-9H-purin-9-yl)tetrahydrothiophen-3,4-diol] |  |
| 22 | -8.3 | 226.3 °C (dec.) | O[C@@H]1[C@H](O)CS[C@H]1n1cnc2c(NCc3cccc4ccccc34)nc(Cl)nc21 [Example 8, (2R,3R,4S)-2-(2-Chloro-6-(naphthalen-1-ylmethylamino)-9H-purin-9-yl)tetrahydrothiophen-3,4-diol] | percentage of inflammation inhibition [3, 8]: 53% |
| 13.1 | -0.18 | 254 to 256.9 °C | O=C(O)c1cccc(CNc2nc(Cl)nc3c2ncn3[C@@H]2SC[C@@H](O)[C@H]2O)c1 [Example 9, 3-((2-chloro-9-((2R,3R,4S)-3,4-dihydroxytetrahydrothiophen-2-yl)-9H-purine-6-ylamino)methyl)benzoic acid] | inhibition at 10 µM ([6]; 10 μM (table footnote), read-out: percentage inhibition of specific binding, hA3): 41.5% |
| 55.4 ± 1.8 | 45 ± 1.4 |  | CNc1nc(Cl)nc2c1ncn2[C@@H]1SC[C@H](O)[C@@H]1O [Example 10, 2-(2-Chloro-6-methylamino-purin-9-yl)(2R,3 S,4R)-tetrahydrothiophen-3,4-diol] | Ki [6]: 3.69 ± 0.25 nM |
|  |  | 183 to 184 °C | O[C@@H]1[C@H](O)CS[C@H]1n1cnc2c(NCc3cccc(Br)c3)ncnc21 [Example 13, (2R,3R,4S)-2-(6-(3-bromobenzylamino)-9H-purin-9-yl)tetrahydrothiophen-3,4-diol] |  |
|  |  | 198.8 to 199.8 °C | O[C@@H]1[C@H](O)CS[C@H]1n1cnc2c(NCc3cccc(I)c3)ncnc21 [Example 14, (2R,3R,4S)-2-(6-(3-Iodobenzylamino)-9H-purin-9-yl)tetrahydrothiophen-3,4-diol] |  |
| 39.8 | 22.8 | 181.5 to 181.7 °C | O[C@@H]1[C@H](O)CO[C@H]1n1cnc2c(NCc3cccc(Br)c3)nc(Cl)nc21 [Example 15, (2R,3R,4R)-2-(6-(3-bromobenzylamino)-2-chloro-9H-purin-9-yl)tetrahydrofuran-3,4-diol] | percentage of inflammation inhibition ([3]; 0.5% in DMSO:acetone (1:9)): 59% |
| 37.7 | 28.6 | 195.5 to 195.8 °C | OC1CO[C@@H](n2cnc3c(NCc4cccc(I)c4)nc(Cl)nc32)C1O (stereo partly drawn) [Example 16, (2R,3R,4R)-2-(6-(3-iodobenzylamino)-2-chloro-9H-purin-9-yl)tetrahydrofuro-3,4-diol] | Ki [6]: 42.9 ± 8.9 nM; percentage of inflammation inhibition ([3]; 0.5% in DMSO:acetone (1:9)): 79% |
